BindingDB's records for doi:10.1021/jm900098v (Kosan Biosciences, 2009)

The compounds below were run against Heat shock protein HSP 90-beta (Homo sapiens, UniProt P08238) (assay: Binding affinity to human recombinant HSP90).
Heat shock protein HSP 90-beta, sequence (P08238 whole entry): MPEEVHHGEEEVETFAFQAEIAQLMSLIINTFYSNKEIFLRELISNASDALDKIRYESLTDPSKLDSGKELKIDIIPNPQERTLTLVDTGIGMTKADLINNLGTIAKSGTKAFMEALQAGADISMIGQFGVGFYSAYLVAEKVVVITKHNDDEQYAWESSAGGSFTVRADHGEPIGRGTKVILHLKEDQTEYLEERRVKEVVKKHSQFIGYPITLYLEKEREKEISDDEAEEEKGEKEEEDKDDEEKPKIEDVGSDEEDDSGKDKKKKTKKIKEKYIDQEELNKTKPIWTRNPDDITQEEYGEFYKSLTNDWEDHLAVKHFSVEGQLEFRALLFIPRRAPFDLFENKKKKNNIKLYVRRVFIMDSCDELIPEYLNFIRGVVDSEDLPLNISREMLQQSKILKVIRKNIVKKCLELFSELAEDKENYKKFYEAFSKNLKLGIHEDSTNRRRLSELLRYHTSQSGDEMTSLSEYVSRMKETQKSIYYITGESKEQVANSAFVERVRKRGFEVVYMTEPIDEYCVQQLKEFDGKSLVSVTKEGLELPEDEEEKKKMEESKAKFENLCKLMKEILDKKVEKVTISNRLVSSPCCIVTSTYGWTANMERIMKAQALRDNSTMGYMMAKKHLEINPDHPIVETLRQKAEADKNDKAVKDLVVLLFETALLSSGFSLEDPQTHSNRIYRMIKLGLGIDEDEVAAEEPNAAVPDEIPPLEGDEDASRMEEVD
For `CO[C@H]1C=CC=C(C)C(=O)Nc2cc(O)c(N=CCN(C)C)c(c2O)C[C@@H](C)C[C@H](OC)[C@H](NCCN(C)C)[C@@H](C)/C=C(\C)[C@@H]1OC(N)=O` [(8S,9S,12S,13R,14S,16R)-13,19-bis(2-(dimethylamino)ethylamino)-8,14-dimethoxy-4,10,12,16-tetramethyl-3,20,22-trioxo-2-azabicyclo[16.3.1]docosa-1(21),4,6,10,18-pentaen-9-yl carbamate], the Kd was > 50 µM. In the case of `C=CCO/N=C1/[C@@H](OC)C[C@H](C)Cc2c(O)c(cc(O)c2N=CCN(C)C)NC(=O)C(C)=CC=C[C@H](OC)[C@@H](OC(N)=O)/C(C)=C/[C@@H]1C` [(8S,9S,12S,14S,16R)-13-(allyloxyimino)-19-(2-(dimethylamino)ethylamino)-8,14-dimethoxy-4,10,12,16-tetramethyl-3,20,22-trioxo-2-azabicyclo[16.3.1]docosa-1(21),4,6,10,18-pentaen-9-yl carbamate], the Kd is reported as > 100 µM. `CO[C@H]1C=CC=C(C)C(=O)Nc2cc(O)c(N=CCF)c(c2O)C[C@@H](C)C[C@H](OC)[C@H](OC(=O)CN)[C@@H](C)/C=C(\C)[C@@H]1OC(N)=O` [(8S,9S,12S,13R,14S,16R)-9-(carbamoyloxy)-19-(2-fluoroethylamino)-8,14-dimethoxy-4,10,12,16-tetramethyl-3,20,22-trioxo-2-azabicyclo[16.3.1]docosa-1(21),4,6,10,18-pentaen-13-yl 2-aminoacetate] was tested, and the Kd was > 25 µM.
